Laboratory results taken from patent publication US8962058B2, “High-potency sweetener composition with antioxidant and compositions sweetened therewith” (The Coca-Cola Company, priority 2005, dated 2015).

Legend:
[1] = system: panel of experts in the sensory evaluation of foods and beverages; assay: Sensory evaluation of sweetness linger by expert panel; type: in vivo; parameters: key: 0=no sweetness linger; 1=very slight sweetness linger; 2=slight sweetness linger; 3=moderate sweetness linger; 4=moderately high sweetness linger; 5=high sweetness linger; details: for Sweetness Linger rating as defined for the protocol's controls: scale anchors: sucrose, 500 ppm REBA control sample; for Sweetness linger rating: scale 0-5
Method: In a particular embodiment, a panel of assessors is used to measure the reduction of sweetness linger. Briefly described, a panel of assessors (generally 8 to 12 individuals) is trained to evaluate sweetness perception and measure sweetness at several time points from when the sample is initially taken into the mouth until 3 minutes after it has been expectorated. […] A decrease in score for a time point measured after the sample has cleared the mouth indicates there has been a reduction in sweetness perception.
The panel of assessors may be trained using procedures well known to those of ordinary skill in the art. In a particular embodiment, the panel of assessors may be trained using the Spectrum™ Descriptive Analysis Method (Meilgaard et al, Sensory Evaluation Techniques, 3rd edition, Chapter 11). Desirably, the focus of training should be the recognition of and the measure of the basic tastes; specifically, sweet. In order to ensure accuracy and reproducibility of results, each assessor should repeat the measure of the reduction of sweetness linger about three to about five times per sample, taking at least a five minute break between each repetition and/or sample and rinsing well with water to clear the mouth.
Generally, the method of measuring sweetness comprises taking a 10 mL sample into the mouth, holding the sample in the mouth for 5 seconds and gently swirling the sample in the mouth, rating the sweetness intensity perceived at 5 seconds, expectorating the sample (without swallowing following expectorating the sample), rinsing with one mouthful of water (e.g., vigorously moving water in mouth as if with mouth wash) and expectorating the rinse water, rating the sweetness intensity perceived immediately upon expectorating the rinse water, waiting 45 seconds and, while waiting those 45 seconds, identifying the time of maximum perceived sweetness intensity and rating the sweetness intensity at that time (moving the mouth normally and swallowing as needed), rating the sweetness intensity after another 10 seconds, rating the sweetness intensity after another 60 seconds (cumulative 120 seconds after rinse), and rating the sweetness intensity after still another 60 seconds (cumulative 180 seconds after rinse). Between samples take a 5 minute break, rinsing well with water to clear the mouth.
Sensory evaluation of the samples prepared in Example Set G was carried out under the following protocol, similar to that described hereinabove. In this test protocol, none of the samples were swallowed. […] Immediately upon sensing maximal sweetness, the sample was expectorated, the mouth was rinsed with water and the rate of sweetness decay (“Sweetness Linger”) was measured, where attention was focused on the sweetness 3-4 min after the water rinse. […]

[2] = Sweetness level as sucrose equivalent

Compound	Sweetness Linger rating as defined for the protocol's controls [1]	sucrose equivalence ([2]; 180 ppm rebaudioside A in 1:1 diluted commercial beverage) [% sucrose]	sucrose equivalence ([2]; 400 ppm REBA in citric acid/potassium citrate composition) [g sucrose]	Sweetness linger rating ([1]; Example Set G: citric acid/potassium citrate composition equivalent to diet lemon-lime beverage (citrate buffer), sweetness 3-4 min after water rinse)	Sweetness linger rating ([1]; Example Set H: carbon-treated water, phosphoric acid (75%) to pH 2.4-2.5)
OC[C@H]1O[C@@](CO)(O[C@H]2O[C@H](CO)[C@@H](O)[C@H](O)[C@H]2O)[C@@H](O)[C@@H]1O [sugar, sucrose]	0				
rebaudioside A	5	5	8	5	5
